# From patent publication US10092584B2 (Achillion Pharmaceuticals, Inc., priority 2015, dated 2018)
# pIC50: −log10 of the molar value. Where a name gives a salt, the structure may show the parent alone.
# Target: T1, Human Factor D (Homo sapiens, UniProt P00746)
# T1 construct: purified from human serum; purchased Complement Technology, Inc; host or cells: human serum
# Experiment: Human Factor D assay (Example 8)
# Type: biochemical
# Details: not given
# Procedure, shortened: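 Thioesterase activity monitored with Z-L-Lys-SBzl plus Ellman's reagent (DTNB), each 100 μM final, after 5 min room-temperature compound preincubation of 80 nM human serum Factor D in pH 7.5 Tris (50 mM)/1M NaCl.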
# T1 sequence (P00746 26-253): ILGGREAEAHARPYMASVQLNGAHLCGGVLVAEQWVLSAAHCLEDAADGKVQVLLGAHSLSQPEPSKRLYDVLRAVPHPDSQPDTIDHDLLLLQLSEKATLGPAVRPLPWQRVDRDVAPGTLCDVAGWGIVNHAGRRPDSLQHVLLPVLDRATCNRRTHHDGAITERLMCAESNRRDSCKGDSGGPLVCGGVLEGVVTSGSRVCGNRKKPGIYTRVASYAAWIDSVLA
row,SMILES,pIC50
1,"CC(=O)c1cn(CC(=O)N2C[C@H](F)C[C@H]2C(=O)Nc2cccc(Br)n2)c2ccc(C3(NC(=O)OC(C)(C)C)CC3)cc12 [Compound 123, tert-butyl 1-(3-acetyl-1-(2-((2S,4R)-2-(6-bromopyridin-2-ylcarbamoyl)-4-fluoropyrrolidin-1-yl)-2-oxoethyl)-1H-indol-5-yl)cyclopropyl-carbamate]",> 6.00
2,"CC(=O)c1cn(CC(=O)N2C[C@H](F)C[C@H]2C(=O)Nc2cccc(-c3ccccc3Cl)c2F)c2c(C#Cc3ncc(F)cn3)cccc12 [Compound 124, (2S,4R)-1-(2-(3-acetyl-7-((5-fluoropyrimidin-2-yl)ethynyl)-1H-indol-1-yl)acetyl)-N-(2′-chloro-2-fluorobiphenyl-3-yl)-4-fluoropyrrolidine-2-carboxamide]",> 6.00

# Same assay, conditions: Table 1; Human Factor D 80 nM, substrate Z-L-Lys-SBzl; read-out: IC50
row,pIC50,SMILES
1,> 6.00,"CC(=O)c1cn(CC(=O)N2C[C@H](F)C[C@H]2C(=O)Nc2cccc(Br)n2)c2ccc(C3(NC(=O)c4cncnc4)CC3)cc12 [Compound 126, N-(1-(3-acetyl-1-(2-((2S,4R)-2-(6-bromopyridin-2-ylcarbamoyl)-4-fluoropyrrolidin-1-yl)-2-oxoethyl)-1H-indol-5-yl)cyclopropyl) pyrimidine-5-carboxamide]"

# Same assay, conditions: Table 2; Human Factor D 80 nM, substrate Z-L-Lys-SBzl; read-out: IC50
row,SMILES,pIC50
1,"NC(=O)c1nn(CC(=O)N2C[C@H](F)C[C@H]2C(=O)Nc2cccc(-c3cc(F)c(F)cc3Cl)c2F)c2ccc(Br)cc12 [Compound 130, 5-bromo-1-(2-((2S,4R)-2-(2′-chloro-2,4′,5′-trifluorobiphenyl-3-ylcarbamoyl)-4-fluoropyrrolidin-1-yl)-2-oxoethyl)-1H-indazole-3-carboxamide]",> 6.00
2,"NC(=O)c1nn(CC(=O)N2C[C@H](F)C[C@H]2C(=O)Nc2cccc(-c3ccccc3Cl)c2F)c2cc(C(=O)O)sc12 [Compound 132, 3-carbamoyl-1-(2-((2S,4R)-2-(2′-chloro-2-fluorobiphenyl-3-ylcarbamoyl)-4-fluoropyrrolidin-1-yl)-2-oxoethyl)-1H-thieno[3,2-c]pyrazole-5-carboxylic acid]",> 6.00
3,"NC(=O)c1nn(CC(=O)N2CC(=O)C[C@H]2C(=O)Nc2cccc(-c3ccccc3Cl)c2F)c2ccccc12 [Compound 134, (S)-1-(2-(2-(2′-chloro-2-fluorobiphenyl-3-ylcarbamoyl)-4-oxopyrrolidin-1-yl)-2-oxoethyl)-1H-indazole-3-carboxamide]",> 6.00
4,"NC(=O)c1nn(CC(=O)N2C(=O)CC[C@H]2C(=O)Nc2cccc(-c3ccccc3Cl)c2F)c2ccccc12 [Compound 135, (S)-1-(2-(2-((2′-Chloro-2-fluoro-[1,1′-biphenyl]-3-yl)carbamoyl)-5-oxopyrrolidin-1-yl)-2-oxoethyl)-1H-indazole-3-carboxamide]",> 6.00
5,"NC(=O)c1nn(CC(=O)N2C[C@H](F)C[C@H]2C(=O)Nc2nc3cccc(Cl)c3[nH]2)c2ccccc12 [Compound 136, 1-(2-((2S,4R)-2-(7-chloro-1H-benzo[d]imidazol-2-ylcarbamoyl)-4-fluoropyrrolidin-1-yl)-2-oxoethyl)-1H-indazole-3-carboxamide]",> 6.00
6,"NC(=O)c1nn(CC(=O)N2C[C@H](F)C[C@H]2C(=O)Nc2cccc(-c3ccccc3Cl)c2F)c2c(Cl)c(Cl)sc12 [Compound 137, 5,6-Dichloro-1-(2-((2S,4R)-2-((2′-chloro-2-fluoro-[1,1′-biphenyl]-3-yl)carbamoyl)-4-fluoropyrrolidin-1-yl)-2-oxoethyl)-1H-thieno[3,2-c]pyrazole-3-carboxamide]",> 6.00
7,"NC(=O)c1nn(CC(=O)N2C[C@H](F)C[C@H]2C(=O)Nc2cccc(-c3ccccc3Cl)c2F)c2cc(Cl)sc12 [Compound 139, 5-Chloro-1-(2-((2S,4R)-2-((2′-chloro-2-fluoro-[1,1′-biphenyl]-3-yl)carbamoyl)-4-fluoropyrrolidin-1-yl)-2-oxoethyl)-1H-thieno[3,2-c]pyrazole-3-carboxamide]",> 6.00
8,"O=C(Nc1cccc(-c2ccccc2Cl)c1F)[C@@H]1C[C@@H](F)CN1C(=O)Cn1c(=O)[nH]c2ccccc21 [Compound 142, (2S,4R)-N-(2′-chloro-2-fluorobiphenyl-3-yl)-4-fluoro-1-(2-(2-oxo-2,3-dihydro-1H-benzo[d]imidazol-1-yl)acetyl) pyrrolidine-2-carboxamide]",> 6.00

# Second part, the compound after the results:
row,pIC50,SMILES
1,> 6.00,"COC(=O)c1cc2c(s1)c(C(N)=O)nn2CC(=O)N1C[C@H](F)C[C@H]1C(=O)Nc1cccc(-c2ccccc2Cl)c1F [Compound 129, methyl 3-carbamoyl-1-(2-((2S,4R)-2-(2′-chloro-2-fluorobiphenyl-3-ylcarbamoyl)-4-fluoropyrrolidin-1-yl)-2-oxoethyl)-1H-thieno[3,2-c]pyrazole-5-carboxylate]"
2,> 6.00,"CC(=O)c1nn(CC(=O)N2C[C@H](F)C[C@H]2C(=O)Nc2cccc(-c3ccccc3Cl)c2F)c2cc(C)sc12 [Compound 131, (2S,4R)-1-(2-(3-acetyl-5-methyl-1H-thieno[3,2-c]pyrazol-1-yl)acetyl)-N-(2′-chloro-2-fluorobiphenyl-3-yl)-4-fluoropyrrolidine-2-carboxamide]"
3,> 6.00,"O=C(NCc1cccc(Cl)c1F)[C@@H]1C[C@@H](F)CN1C(=O)Cn1cc(-c2cnco2)c2ccccc21 [Compound 133, (2S,4R)-N-(3-chloro-2-fluorobenzyl)-4-fluoro-1-(2-(3-(oxazol-5-yl)-1H-indol-1-yl)acetyl) pyrrolidine-2-carboxamide]"
4,> 6.00,CC(=O)c1nn(CC(=O)N2C[C@H](F)C[C@H]2C(=O)Nc2cccc(-c3ccccc3Cl)c2F)c2cc(C(=O)O)sc12 [Compound 138]
5,> 6.00,"NCC(=O)c1ccc(Cl)c(-c2cccc(NC(=O)[C@@H]3C[C@@H](F)CN3C(=O)Cn3nc(C(N)=O)c4ccccc43)c2F)c1 [Compound 140, 1-(2-((2S,4R)-2-((2′-Chloro-2-fluoro-5′-glycyl-[1,1′-biphenyl]-3-yl)carbamoyl)-4-fluoropyrrolidin-1-yl)-2-oxoethyl)-1H-indazole-3-carboxamide hydrochloride]"
6,> 6.00,"NC(=O)c1nn(CC(=O)N2C[C@H](F)C[C@H]2C(=O)Nc2cccc(-c3cc(C(=O)CO)ccc3Cl)c2F)c2ccccc12 [Compound 141, 1-(2-((2S,4R)-2-(2′-chloro-2-fluoro-5′-(2-hydroxyacetyl)bi-phenyl-3-ylcarbamoyl)-4-fluoropyrrolidin-1-yl)-2-oxoethyl)-1H-indazole-3-carboxamide]"

# Same assay, conditions: Table 3; Human Factor D 80 nM, substrate Z-L-Lys-SBzl; read-out: IC50 (Stars)
row,SMILES,pIC50
1,"NC(=O)c1nn(CC(=O)N2C(=O)CC[C@H]2C(=O)Nc2cccc(-c3ccccc3Cl)c2F)c2ccccc12 [Compound 260, (S)-1-(2-(2-(2′-Chloro-2-fluorobiphenyl-3-ylcarbamoyl)-5-oxopyrrolidin-1-yl)-2-oxoethyl)-1H-indazole-3-carboxamide]",> 6.00
2,"CC(=O)c1nn(CC(=O)N2C[Si](C)(C)C[C@H]2C(=O)NCc2cccc(Cl)c2F)c2ccccc12 [Compound 268, (R)-1-(2-(3-acetyl-1H-indazol-1-yl)acetyl)-N-(3-chloro-2-fluorobenzyl)-3,3-dimethyl-1,3-azasilolidine-5-carboxamide]",5.00 to 6.00
3,"NC(=O)c1nn(CC(=O)N2C[C@H](F)[C@@H](O)[C@H]2C(=O)Nc2cccc(-c3ccccc3Cl)c2F)c2ccccc12 [Compound 279, 1-(2-((2S,3S,4S)-2-(2′-Chloro-2-fluorobiphenyl-3-ylcarbamoyl)-4-fluoro-3-hydroxypyrrolidin-1-yl)-2-oxoethyl)-1H-indazole-3-carboxamide]",> 6.00
4,"CO[C@H]1[C@@H](C(=O)Nc2cccc(-c3ccccc3Cl)c2F)N(C(=O)Cn2nc(C(N)=O)c3ccccc32)C[C@@H]1F [Compound 289, 1-(2-((2S,3S,4S)-2-(2′-Chloro-2-fluorobiphenyl-3-ylcarbamoyl)-4-fluoro-3-methoxypyrrolidin-1-yl)-2-oxoethyl)-1H-indazole-3-carboxamide]",> 6.00
5,"NC(=O)c1nn(CC(=O)N2C[C@H](F)C[C@H]2C(=O)Nc2cccc(-c3cc(F)c(F)cc3Cl)c2F)c2ccc(Br)cc12 [Compound 319, 5-bromo-1-(2-((2S,4R)-2-((2′-chloro-2,4′,5′-trifluoro-[1,1′-biphenyl]-3-yl)carbamoyl)-4-fluoropyrrolidin-1-yl)-2-oxoethyl)-1H-indazole-3-carboxamide]",> 6.00

# Further lines, results first:
row,pIC50,SMILES
1,5.00 to 6.00,"CC(=O)c1nn(CC(=O)N2C[Si](C)(C)C[C@H]2C(=O)Nc2cccc(Br)n2)c2ccccc12 [Compound 271, (R)-1-(2-(3-acetyl-1H-indazol-1-yl)acetyl)-N-(6-bromopyridin-2-yl)-3,3-dimethyl-1,3-azasilolidine-5-carboxamide]"
2,> 6.00,"CC(=O)c1cc(CC(=O)N2C[C@H](F)C[C@H]2C(=O)Nc2cccc(-c3ccccc3Cl)c2F)n2ccccc12 [Compound 312, (2S,4R)-1-(2-(1-Acetylindolizin-3-yl)acetyl)-N-(2′-chloro-2-fluorobiphenyl-3-yl)-4-fluoropyrrolidine-2-carboxamide]"
3,> 6.00,"CC(=O)c1cc(CC(=O)N2C[C@H](F)C[C@H]2C(=O)Nc2cccc(Br)n2)n2ccccc12 [Compound 314, (2S,4R)-1-(2-(1-Acetylindolizin-3-yl)acetyl)-N-(6-bromopyridin-2-yl)-4-fluoropyrrolidine-2-carboxamide]"
4,> 6.00,"NC(=O)c1ccc(Cl)c(-c2cccc(NC(=O)[C@@H]3C[C@@H](F)CN3C(=O)Cn3nc(C(N)=O)c4ccccc43)c2F)c1 [Compound 315, 1-(2-((2S,4R)-2-((5′-carbamoyl-2′-chloro-2-fluoro-[1,1′-biphenyl]-3-yl)carbamoyl)-4-fluoropyrrolidin-1-yl)-2-oxoethyl)-1H-indazole-3-carboxamide]"
5,> 6.00,"CC(=O)c1nn(CC(=O)N2C[C@H](F)C[C@H]2C(=O)Nc2cccc(-c3ccccc3Cl)c2F)c2cc(C)sc12 [Compound 323, (2S,4R)-1-(2-(3-Acetyl-5-methyl-1H-thieno[3,2-c]pyrazol-1-yl)acetyl)-N-(2′-chloro-2-fluoro-[1,1′-biphenyl]-3-yl)-4-fluoropyrrolidine-2-carboxamide]"
